Experimental data published in publication PMC12040169 (PLOS Biology, 2025).

test: in vitro; settings: human, hela cells, % viability

Row | Structure (SMILES) | viability at 28.5 h, 10 µM [%]
1 | CCC(C)(C)c1ccc(S(=O)(=O)N2CCN(Cc3cc(C(=O)OC)n(C)c3)CC2)cc1 [CBK062831] | 96.3
2 | CCOCCN1CCC(C(=O)NC(c2ccc(F)cc2)c2nc(OC)cc(OC)n2)CC1 (centres unmarked) [CBK148087] | 98
3 | OB(O)c1ccc(Oc2ccc(B(O)O)cc2)cc1 [CBK261159] | 102
4 | OCCN1CC2(CCN(Cc3cccc4cccnc34)CC2)c2ccccc21 [CBK137014] | 95.1
5 | CS(=O)(=O)N1CCCc2cc(-c3csc(N4CCOCC4)n3)ccc21 [CBK305022] | 84.8
6 | CCNc1nc(C#N)nc(Nc2ccccc2)n1 [CBK027733] | 86.1
7 | CCCC1(C)NC(=O)N(Cc2coc(-c3cccs3)n2)C1=O (centres unmarked) [CBK305594] | 100
8 | CC(C)(C)OC(=O)NCCCn1cc(C(=O)O)nn1 [CBK287028] | 90.4
9 | Cn1c(SCc2c(Cl)cccc2[N+](=O)[O-])nnc1-c1ccc(NC(=O)c2ccccc2Cl)cc1 [CBK264983] | 81.1
10 | Cn1nnc2cc(C(=O)N(CCO)c3ccccc3)ccc21 [CBK266522] | 95.5
11 | CCCCNc1cc(C)nc2c(-c3ccccc3)cnn12 [CBK287792] | 92.1
12 | O=C1C2C3C=CC(C3)C2C(=O)N1CCN1CCNCC1 (centres unmarked) [CBK278185C] | 92.3
13 | CC1CCc2c(sc(NC(=O)c3cccs3)c2C#N)C1 (centres unmarked) [CBK304625] | 101
14 | Cc1ccc(C(=O)Nc2nc3ccc4nc(C)sc4c3s2)cc1 [CBK287305] | 91.8
15 | CC(=O)N1CCN(C[C@@H]2C=C(C)[C@H](Cc3nnc(C)o3)C[C@H]2C(C)C)CC1 [CBK289219] | 114
16 | O=C(CN1C(=O)[C@@H]2CCCN2c2ncccc21)NC1CCCCC1 [CBK286204] | 116
17 | O[C@@H]1CN(Cc2ccc(F)c(F)c2)CC[C@H]1NC1CC1 [CBK283319] | 94
18 | COc1cc(/C=N/NC(=O)c2cccc([N+](=O)[O-])c2)cc(OC)c1O [CBK262172] | 83.1
19 | COc1ccccc1-c1cc2nc(C)cc(NCC3CCCO3)n2n1 (centres unmarked) [CBK304277] | 96.5
20 | OCCN1CCN(c2nc(C3CCOC3)cn3ccnc23)CC1 (centres unmarked) [CBK037931] | 98.5
21 | O=C(CSc1ncn(-c2ccccc2)n1)Nc1ccc2[nH]c(=O)[nH]c2c1 [CBK268212] | 106
22 | CCN1C(=O)CC(n2c(C)nc3ccccc32)C1=O (centres unmarked) [CBK287847] | 108

Row | Structure (SMILES) | viability at 28.5 h, 10 µM [%]
23 | CCOC(=O)c1ccc(-c2nccnc2Oc2cccc(OC)c2)cc1 [CBK107115] | 81
24 | O[C@@]1(c2ccccn2)CC[C@H]2CN(Cc3ccc(F)c(F)c3)C[C@H]21 [CBK285456] | 107
25 | O=C(CNc1ccc2ccccc2c1)N/N=C/c1cc2c(cc1[N+](=O)[O-])OCO2 [CBK261126] | 83.1
26 | CCOC(=O)C1CCN(S(=O)(=O)c2ccc(Cl)s2)CC1 [CBK096109] | 94.9
27 | CC1CCCCC1NC(=O)Cn1ncc2cccn2c1=O (centres unmarked) [CBK283673] | 98.7
28 | CC(C)[C@H]1N=C2C=C(C(C)(C)C)ON2[C@H]2[C@H](O)[C@H](O)C[C@H]21 [CBK303234] | 90.1
29 | COCCN1CCn2c(nc3cc(NC(=O)C4CCCCC4)ccc32)C1 [CBK307411] | 112
30 | O=C(NC1CCCCC1)C1CCC1 [CBK011511] | 96.5
31 | CN1CCC2(CC1)NCCc1c2ccn1S(=O)(=O)c1cccc2c(N(C)C)cccc12 [CBK061633C] | 105
32 | C=CCn1c2cc(C)sc2c2cnn(CC(=O)N(C)C)c(=O)c21 [CBK284164] | 83.9
33 | CCCc1[nH]nc(O)c1Cc1ccc(C(C)C)cc1 [CBK075033] | 106
34 | CC(=O)Nc1ccc(-c2cncc(NCCCO)n2)cc1 [CBK065598] | 103
35 | COC(=O)[C@@H](C)NC(=O)[C@H]1CN(C(=O)c2cccnc2)CCN1C(=O)c1cccs1 [CBK289628] | 82.4
36 | Cc1ccc(CN(Cc2ccco2)CC(O)COCc2ccco2)s1 (centres unmarked) [CBK304610] | 96.7
37 | Cc1ccc2nc(N(CCCN(C)C)C(=O)c3ccco3)sc2c1 [CBK287639] | 114
38 | Cc1ccc(C(=O)Nc2cccc(CCc3ccncc3)c2)c(=O)n1C [CBK285556] | 84.4
39 | COc1ccc(C)cc1S(=O)(=O)n1ccc2c(OC3CCCN(C)C3)nccc21 (centres unmarked) [CBK051582C] | 85.3
40 | O=C1C2N=NN(Cc3ccccc3)C2C(=O)N1C1CCCCC1 (centres unmarked) [CBK067389] | 115
41 | COc1ccc(-c2n[nH]c(N)n2)cc1 [CBK028843] | 116
42 | COc1ncc(-c2cncc(N3CCN(c4ccc(OC)c(OC)c4)CC3)n2)c(OC)n1 [CBK065169] | 89.5
43 | CCc1nn(CC(=O)N(C)C)c(=O)c2cc3sccc3n12 [CBK284031] | 91.3
44 | CCNC(=O)C1(Cc2ccccc2-c2ccccc2)CCN(C(=O)c2csc(C)c2)CC1 [CBK285698] | 93.3
